Assay results taken from US10647675B2 (priority 2015, dated 2020).
In brackets after ≈: the same amount, converted by molar mass.

How the values were obtained:
[1] = system: Trichophyton mentagrophytes SM-110; assay: Antifungal activity evaluation test: minimum inhibitory concentration (MIC), broth dilution by reference to CLSI M38-A2; assay type: cell-based; conditions: SM110, read-out: MIC (T. menta.)
Method in brief: (§1)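 Broth microdilution after CLSI M38-A2: 2-fold DMSO dilution series in MOPS-buffered RPMI 1640 pH 7.0, inoculum 2×10^3 cells/mL final. Incubated 35° C for 4 days; MIC (μg/mL) is lowest concentration giving visually ≥80% growth inhibition versus growth control.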

[2] = system: Trichophyton rubrum KD-1130; assay: as above; assay type: cell-based; conditions: KD1130, read-out: MIC (T. rubrum)
Method in brief: as §1

SMILES	MIC [1] [µg/mL]	MIC [2] [µg/mL]
CCC(=O)OCCc1ccc(Oc2ncccc2-c2cnccc2OC)cc1 [I-278, 4-{[4′-methoxy-3,3′-bipyridin)-2-yl]oxy}phenethyl propionate]	0.2 to 0.78 (≈ 0.529 to 2.06 µM)	0.2 to 0.78 (≈ 0.529 to 2.06 µM)
COC(=O)CCc1ccc(Oc2ncccc2-c2cnccc2OC)cc1 [I-279, methyl 3-(4-{[4′-methoxy-3,3′-bipyridin-2-yl]oxy}phenyl)propionate]	0.2 to 0.78 (≈ 0.549 to 2.14 µM)	0.2 to 0.78 (≈ 0.549 to 2.14 µM)
CCc1ccc(Oc2ncccc2-c2cccnc2OC)cc1 [I-280, 2-(4-ethylphenoxy)-2′-methoxy-3,3′-bipyridine]	≤ 0.1	≤ 0.1
CCc1ccc(Oc2ncccc2-c2ccncc2OC)cc1 [I-281, 2-(4-ethylphenoxy)-3′-methoxy-3,4′-bipyridine]	≤ 0.1	≤ 0.1
CCc1ccc(Oc2ncccc2-c2cncnc2OC)cc1 [I-282, 5-[2-(4-ethylphenoxy)pyridin-3-yl]-4-methoxypyrimidine]	≤ 0.1	≤ 0.1
CCc1ccc(Oc2ncccc2-c2cncc(F)c2OC)cc1 [I-283, 2-(4-ethylphenoxy)-5′-fluoro-4′-methoxy-3,3′-bipyridine]	≤ 0.1	≤ 0.1
CCc1ccc(Oc2ncccc2-c2cncc(Cl)c2OC)cc1 [I-284, 5′-chloro-2-(4-ethylphenoxy)-4′-methoxy-3,3′-bipyridine]	≤ 0.1	≤ 0.1
CCc1ccc(Oc2ncccc2-c2cncc(Br)c2OC)cc1 [I-285, 5′-bromo-2-(4-ethylphenoxy)-4′-methoxy-3,3′-bipyridine]	≤ 0.1	≤ 0.1
CCc1ccc(Oc2ncccc2-c2cncc(C)c2OC)cc1 [I-286, 2-(4-ethylphenoxy)-4′-methoxy-5′-methyl-3,3′-bipyridine]	≤ 0.1	≤ 0.1
CCc1ccc(Oc2ncccc2-c2cncc(C=O)c2OC)cc1 [I-287, 2′-(4-ethylphenoxy)-4-methoxy-(3,3′-bipyridine)-5-carbaldehyde]	0.2 to 0.78 (≈ 0.598 to 2.33 µM)	0.2 to 0.78 (≈ 0.598 to 2.33 µM)
CCc1ccc(Oc2ncccc2-c2cncc(C(F)F)c2OC)cc1 [I-288, 5′-(difluoromethyl)-2-(4-ethylphenoxy)-4′-methoxy-3,3′-bipyridine]	≤ 0.1	≤ 0.1
CCc1ccc(Oc2ncccc2-c2cnccc2C)cc1 [I-289, 2-(4-ethylphenoxy)-4′-methyl-3,3′-bipyridine]	≤ 0.1	≤ 0.1
CCc1ccc(Oc2ncccc2-c2cnccc2Cl)cc1 [I-290, 4′-chloro-2-(4-ethylphenoxy)-3,3′-bipyridine]	≤ 0.1	≤ 0.1
CCc1ccc(Oc2ncccc2-c2cnccc2CC)cc1 [I-291, 4′-ethyl-2-(4-ethylphenoxy)-3,3′-bipyridine]	≤ 0.1	≤ 0.1
CCc1ccc(Oc2ncccc2-c2cccc3ccnn23)cc1 [I-292, 7-[2-(4-ethylphenoxy)pyridin-3-yl]pyrazolo[1,5-a]pyridine]	≤ 0.1	≤ 0.1
CCc1ccc(Oc2ncccc2-c2cc3nccn3cc2C)cc1 [I-293, 7-[2-(4-ethylphenoxy)pyridin-3-yl]-6-methylimidazo[1,2-a]pyridine]	1.56 to 6.25 (≈ 4.74 to 19 µM)	1.56 to 6.25 (≈ 4.74 to 19 µM)
COc1ccncc1-c1cccnc1Oc1ccc(C(F)F)cc1 [I-294, 2-[4-(difluoromethyl)phenoxy]-4′-methoxy-3,3′-bipyridine]	0.2 to 0.78 (≈ 0.609 to 2.38 µM)	0.2 to 0.78 (≈ 0.609 to 2.38 µM)
COc1ccncc1-c1cccnc1Oc1ccc(C(F)F)c(C)c1 [I-295, 2-[4-(difluoromethyl)-3-methylphenoxy]-4′-methoxy-3,3′-bipyridine]	≤ 0.1	≤ 0.1
CCc1cc(Oc2ncccc2-c2cnccc2OC)ccc1C(F)F [I-296, 2-[4-(difluoromethyl)-3-ethylphenoxy]-4′-methoxy-3,3′-bipyridine]	≤ 0.1	≤ 0.1

SMILES	MIC [1] [µg/mL]	MIC [2] [µg/mL]
COc1ccncc1-c1cccnc1Oc1ccc(C(C)(F)F)cc1 [I-297, 2-[4-(1,1-difluoroethyl)-phenoxy]-4′-methoxy-3,3′-bipyridine]	≤ 0.1	≤ 0.1
COc1ncccc1-c1cccnc1Oc1ccc(C(C)(F)F)cc1 [I-298]	≤ 0.1	≤ 0.1
Cc1ccncc1-c1cccnc1Oc1ccc(C(C)(F)F)cc1 [I-299, 2-[4-(1,1-difluoroethyl)-phenoxy]-4′-methyl-3,3′-bipyridine]	≤ 0.1	≤ 0.1
COc1c(Cl)cncc1-c1cccnc1Oc1ccc(C(C)(F)F)cc1 [I-300]	≤ 0.1	≤ 0.1
COc1c(F)cncc1-c1cccnc1Oc1ccc(C(C)(F)F)cc1 [I-301, 2-[4-(1,1-difluoroethyl)-phenoxy]-5′-fluoro-4′-methoxy-3,3′-bipyridine]	≤ 0.1	≤ 0.1
COc1ccncc1-c1cccnc1Oc1ccc(C(C)(F)F)cc1F [I-302]	≤ 0.1	≤ 0.1
Cc1ccncc1-c1cccnc1Oc1ccc(C(C)(F)F)cc1F [I-303, 2-[4-(1,1-difluoroethyl)-2-fluorophenoxy]-4′-methyl-3,3′-bipyridine]	≤ 0.1	≤ 0.1
COc1ccncc1-c1cccnc1Oc1ccc(C(C)(F)F)c(F)c1 [I-304]	≤ 0.1	≤ 0.1
Cc1ccncc1-c1cccnc1Oc1ccc(C(C)(F)F)c(F)c1 [I-305, 2-[4-(1,1-difluoroethyl)-3-fluorophenoxy]-4′-methyl-3,3′-bipyridine]	≤ 0.1	≤ 0.1
Cc1ccncc1-c1cccnc1Oc1ccc(C(F)(F)CF)cc1 [I-306]	≤ 0.1	≤ 0.1
CC(F)(F)c1ccc(Oc2ncccc2-c2cccc3ccnn23)cc1 [I-307, 7-{2-[4-(1,1-difluoroethyl)-phenoxy]pyridin-3-yl}pyrazolo[1,5-a]pyridine]	≤ 0.1	≤ 0.1
CC(F)(F)c1ccc(Oc2ncccc2-c2cccc3nccnc23)cc1 [I-308, 5-{2-[4-(1,1-difluoroethyl)-phenoxy]-3-yl}quinoxaline]	≤ 0.1	≤ 0.1
COc1ccccc1-c1nccnc1Oc1ccc(C(F)(F)F)nc1 [I-309, 2-(2-methoxyphenyl)-3-{[6-(trifluoromethyl)pyridin-3-yl]oxy}pyrazine]	0.2 to 0.78 (≈ 0.576 to 2.25 µM)	≤ 0.1
COc1ccccc1-c1cncnc1Oc1ccc(C(F)(F)F)nc1 [I-310, 5-(2-methoxyphenyl)-4-{[6-(trifluoromethyl)pyridin-3-yl]oxy}pyrimidine]	≤ 0.1	≤ 0.1
COc1ccccc1-c1ccnnc1Oc1ccc(C(F)(F)F)nc1 [I-311, 4-(2-methoxyphenyl)-3-{[6-(trifluoromethyl)pyridin-3-yl]oxy}pyridazine]	0.2 to 0.78 (≈ 0.576 to 2.25 µM)	0.2 to 0.78 (≈ 0.576 to 2.25 µM)
COc1ccccc1-c1cncnc1Oc1ccc(C(C)(F)F)nc1 [I-312, 4-{[6-(1,1-difluoroethyl)-pyridin-3-yl]oxy}-5-(2-methoxyphenyl)pyrimidine]	≤ 0.1	≤ 0.1
COc1ccccc1-c1cccnc1Nc1ccc(C(F)(F)F)nc1 [I-313]	≤ 0.1	≤ 0.1
Clc1ccc(Oc2nccnc2-c2cccc3ccccc23)cc1 [I-314, 2-(4-chlorophenoxy)-3-(naphthalen-1-yl)pyrazine]	0.2 to 0.78 (≈ 0.601 to 2.34 µM)	≤ 0.1
COc1ccccc1-c1nccnc1Oc1ccc2c(c1)CCCC2 [I-315]	≤ 0.1	≤ 0.1
